Patent US20020102533A1, “Hepatitis C protease exosite for inhibit or design” (priority 2000, published 2002)
Entries after “also recorded” stand apart in the source; their conditions may differ. Where two headings read alike, the source gives them in different places. Where a SMILES comes first, the peptide text is derived from it. [ ]: non-standard residue; d: D form. Dip = N[C@H](C(=O)O)C(c1ccccc1)c1ccccc1; Cha = N[C@@H](CC1CCCCC1)C(=O)O

Assays:
[1] = biological target: T1, HCV NS3 protease, genotype 1a (Hepatitis C virus genotype 1a, UniProt P26664); assay type: biochemical
T1 construct: NS3 protease catalytic domain (amino acids 1 to 192); MGAQH expression leader (5 aa), or alternatively the 15 aa His tag […]; made in house; host or cells: E. coli BL21 (DE3)
Procedure: (§1) Endpoint HPLC based HCV protease assay: HCV protease (5 nM) was incubated in 50 mM Tris pH 7.5, 0.1% maltoside, 5 mM DTT and appropriate amounts of glycerol, NS4A peptide, and substrate. Routine assays were 100 μl in volume containing 15% or 50% glycerol, 5.0 μM NS4A peptide and 5.0 μM substrate. Reactions were run at room temperature (˜22° C.) and quenched by the addition of 4 μl of 10% TFA before 10% of the substrate was consumed. Incubation times were 20 minutes for the ester substrate (Peptide Substrate A) and 80 minutes for the P6-P7′ amide substrate (Peptide Substrate B). […] Incubation times were 90 min. Samples, 50 μl, were injected onto an Hewlett Packard 1090 Liquid Chromatograph containing a Dynamax-60A C18 column. The column was eluted with a linear gradient from 10% acetonitrile to 45% acetonitrile in water. All solvents contained 0.1% TFA. A flow rate of 1 ml/min was used. […] The product peaks were detected by fluorescence excitation at 350 nm and emission at 500 nm.
(§2) Footnote a for Table 1 references the assay condiditions: 1) Substrate A=P6-P3′, HCV protease (4.0 nM) was incubated with various concentrations of truncated analogs of Q9692 in 50 mM Tris buffer, pH 7.0, 15% glycerol, 0.1% maltoside, 5 mM DTT and 10 μM NS4A peptide in a 96-well microtiter plate at room temperature. After 15 minutes catalysis was initiated by the addition of Ac-D-E-D(EDANS)-E-E-Abuψ[COO]-A-S-K(DABCYL)—NH2 (final concentration 5.0 μM in a total reaction volume of 200 μl). Enzymatic activity was monitored by measuring the increase in fluorescence with time on a Perkin Elmer LS50B luminescence spectrometer (excitation 350 nm, emission 500 nm, both slits 10 nm). […] Assays were 100 μl in volume, reactions were run at room temperature (˜22 C) for 80 minutes (<10% of the substrate was consumed). The addition of 4 μl of 10% TFA quenched the reactions. Quantitation of hydrolysis products was determined by measuring fluorescent peak areas following HPLC. Products were detected by excitation at 350 nm and measuring emission at 500 nm. Aliquots (50 μl) of quenched enzymatic reactions were injected on an Hewlett Packard 1090 HPLC equipped with a ¼ inch Dynamex 60A C18 column. A linear gradient from 10% acetonitrile:H2O to 45% acetonitrile:H2O was run over a period of 15 min at a flow rate of 1.0 ml/min. All solvents contained 0.1% TFA.
Comparison of the effects of Q9692 on the hydrolysis of a P6-P3′ ester substrate (FIG. 2A) and a P6-P7′ substrate (FIG. 2B) and P6-P3′ amide substrate (FIG. 2C) were determined. For substrates A and B1 Concentrations of Q9692 are 0 (circles), 1 μM (squares), 2 μM (diamonds) and 4 μM (triangles). Assay conditions: HCV protease (5 nM) was incubated in 50 mM Tris buffer at pH 7.0, 15% glycerol, 0.1% maltoside, 5 mM DTT, 10 μM NS4A peptide, and specified concentration of substrate. Assays were 100 μl in volume and reactions were run at room temperature (22 C) and quenched by the addition of 4 μl of 10% TFA before 10% of the substrate was consumed. Incubation times were 20 minutes for the ester substrate and 80 minutes for the amide substrate. Hydrolysis products were quantitated by measuring fluorescent peak areas following HPLC and detection by excitation at 350 nm and measuring emission at 500 nm. Aliquots (50 μl) of quenched enzymatic reactions were injected on an Hewlett Packard 1090 HPLC equipped with a ¼ inch Dynamex 60A C18 column.

[2] = biological target: T1, HCV NS3 protease, genotype 1a; assay: biochemical; assay type: biochemical
Procedure: as §1
Continuous fluorescence-based HCV protease assay: This asay was a modified version of method of Taliani (Taliani, M.; et al. Anal. Biochem. 240, 60-67, 1996) using Substrate A (Ac-D-E-D(EDANS)-E-E-Abuψ[COO]-A-S-K(DABCYL)—NH2). Assays were run in a 96-well microtiter plates using a Perkin Elmer Luminescence Spectrometer LS50B exciting at 350 nm (10 nm slit) and emitting at 500 nm (10 nm slit). In a typical assay the protease (1-4 nM) was incubated with 10 μM NS4a peptide in 50 mM Tris pH 7.0, 5.0 mM DTT, 50% glycerol, and […] for 15 min. Catalysis was initiated by the addition of Substrate A (final concentration 5.0 μM). Assays were also run under conditions where 15% glycerol, 0.1% Maltoside were substituted for 50% glycerol and 5% CHAPS. Enzymatic activity was monitored by measuring the increase in fluorescence with time using excitation wavelength of 350 nm and an emission wavelength of 500 nm. Both slit widths were 10 nm. Inhibition constants were determined from a nonlinear least squares fit of the data to the equation Vi/Vo=1/(1+[I]/Kiapp). Where Vi is the velocity measured in the presence of inhibitor (inhibitors were introduced with the NS4a peptide) and Vo is the velocity of controls. The thermodynamic Ki was determined from Kiapparent via the relationship for competitive kinetics: Ki=Kiapp/(1+[S]/Km) where [S] is the substrate concentration.
as §2

HCV protease (NS3) = biological target: T2, HCV protease (NS3) (Hepatitis C virus genotype 1a, UniProt P26664); assay type: binding
T2 construct: NS3 protease catalytic domain (amino acids 1 to 192); MGAQH expression leader (5 aa), or alternatively the 15 aa His tag MRGSHHHHHHMGAQH; made in house; host or cells: E. coli BL21 (DE3)
Procedure: Intrinsic fluorescence studies: Assays were conducted in 0.5 ml fluorescent cuvettes (0.4 ml total volume). […] Fluorescence spectra were obtained by exiting at 280 nm (10 nm slit) and scanning the emission profile from 300 to 400 nm (10 nm slit) at 1 nm s^−1.
Fluorescence spectrum of HCV protease (0.45 μM) in 50 mM Tris buffer, pH 7.0, containing 15% glycerol, and 0.10% maltoside were measured over a range of 300-400 nm using an excitation wavelength of 280 nm. Both excitation and emission slit widths were 10 nm and the scan rate was 1.0 nm sec^−1.

[3] = P6-P3′ ester substrate, 2 μM Q9692

CC(=O)N[C@@H](CC(=O)O)C(=O)N[C@@H](CCC(=O)O)C(=O)N[C@H](C(=O)N[C@@H](CCC(=O)O)C(=O)N[C@@H](CC1CCCCC1)C(=O)N[C@@H](CS)C(=O)O)C(c1ccccc1)c1ccccc1 [Q9692, Ac-Asp-Glu-Dpa-Glu-Cha-Cys—OH] (Ac-DE[Dip]E[Cha]C-OH)
Dixon plots of 1/V versus Q9717 concentration ([1]; 5 μM substrate spanning P6-P7′): intersecting lines | mode of action ([1]; P6-P7′ substrate, double reciprocal plots): competitive inhibitor | (S = P6-P7′) Inhibition (+) / Activation (−) ([1]; substrate B): + | Dixon plots of 1/V versus Q9717 concentration ([2]; 5 μM substrate spanning P6-P3′): intersecting lines | concentration of maximum stimulation ([2]; P6-P3′ ester substrate): 4 µM | concentrations at which inhibition was observed ([2]; P6-P3′ ester substrate): greater than 10.0 μM | kcat of substrate [2, 3]: relatively unchanged | reduction in Km of substrate [2, 3]: 5 fold | activation of the enzyme (maximum stimulation) ([2]; P6-P3′ ester substrate, maximum at 4 μM Q9692): approximately 5 fold | (S = P6-P3′) Inhibition(+) / Activation (−) ([2]; substrate A): − | further increase in intrinsic fluorescence (HCV protease (NS3); 5.0 μM added after 12.5 μM NS4a): 70% | effect on fluorescence spectrum (HCV protease (NS3); in the absence of NS4a): little effect | effect on intrinsic fluorescence (HCV protease (NS3); in the presence of NS4a): near doubling of intrinsic fluorescence; also recorded: nearly doubles the intrinsic fluorescence; also recorded: large increase in fluorescence
